Laboratory results: patent publication US6800470B2, “Mammalian sphingosine kinase type 2 isoforms, cloning, expression and methods of use thereof” (Sankyo Company, Ltd., priority 2000, dated 2004)
“Also recorded” adds a separate entry of the source.

Experiments:
mSPHK2 = biological target: T1, mSPHK2 (Mus musculus, UniProt Q9JIA7); assay: SPHK activity assay with recombinant mSPHK2 (cytosol/lysates of transfected HEK293 cells, [g-32P]ATP, TLC); format: biochemical; settings: for salt concentration with maximal stimulation of SPHK2 activity: increasing salt concentration, FIG. 5C; for SPHK-dependent phosphorylation by SPHK2 (substrate specificity): lipids 50 mM as printed, cytosol of HEK293 cells transfected with mSPHK2, compared with D-erythro-sphingosine
T1 construct: The open reading frames of mSPHK2 and hSPHK2 encode polypeptides of 617 and 618 amino acids, respectively; made in house; host or cells: HEK293 (ATCC CRL-1573), transient transfection; unpurified cytosol or whole lysate
T1 sequence (Q9JIA7 1-617): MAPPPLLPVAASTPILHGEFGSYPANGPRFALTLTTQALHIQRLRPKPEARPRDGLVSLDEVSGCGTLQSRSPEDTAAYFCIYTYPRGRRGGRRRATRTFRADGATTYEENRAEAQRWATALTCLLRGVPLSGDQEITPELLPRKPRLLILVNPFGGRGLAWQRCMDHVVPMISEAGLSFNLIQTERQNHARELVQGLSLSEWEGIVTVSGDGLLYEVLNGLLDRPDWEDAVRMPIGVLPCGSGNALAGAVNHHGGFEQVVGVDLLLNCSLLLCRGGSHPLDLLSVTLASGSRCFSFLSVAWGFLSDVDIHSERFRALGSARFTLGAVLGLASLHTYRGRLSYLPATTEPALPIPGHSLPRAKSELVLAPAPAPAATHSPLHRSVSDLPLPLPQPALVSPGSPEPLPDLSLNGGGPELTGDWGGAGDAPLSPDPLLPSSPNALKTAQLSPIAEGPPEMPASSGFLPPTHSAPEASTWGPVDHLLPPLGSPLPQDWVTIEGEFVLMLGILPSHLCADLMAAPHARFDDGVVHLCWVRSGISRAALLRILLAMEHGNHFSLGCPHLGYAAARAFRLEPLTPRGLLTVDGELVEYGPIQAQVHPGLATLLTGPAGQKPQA
Experimental: Lanes: 1, D-erythro-sphingosine (“D-erythro-Sph”); 2, D-erythro-dihydrosphingosine (“D-erythro-DHS”); 3, D, L-threo-DHS; 4, N,N-dimethylsphingosine (“DMS”); 5, C2-ceramide; 6, C16-ceramide; 7, diacylglycerol; 8, phosphatidylinositol; 9, phytosphingosine. Data are expressed as percentage of phosphorylation of D-erythro-Sph.
SPHK activity in HEK293 cell lysates after transfection as in FIG. 4A was measured with 10 μM D-erythro-sphingosine in the presence of increasing concentrations of DMS.
SPHK activity was measured with varying concentrations of D-erythro-sphingosine in the absence (open circles) or presence of 10 μM (filled squares) or 20 μM DMS (filled triangles).
FIG. 4D are Lineweaver-Burk plots.
(§1) In FIGS. 5B and 5C, the SPHK activity in HEK293 cell lysates was measured 24 hours after transfection with mSPHK1 (FIG. 5B) or mSPHK2 (FIG. 5C) in the absence or presence of increasing concentrations of NaCl (open squares) or KCl (filled circles).
FIG. 5E are Lineweaver-Burk plots of data from FIG. 5D.
(§2) HEK293 cells were transfected with mSPHK1a (open circles) or mSPHK2 (filled circles) and the activities of each in cell lysates were measured after 24 hours in the presence of the indicated concentrations of Triton X-100 (FIG. 6A) or BSA (FIG. 6B).
(§3) HEK293 cells were transfected with mSPHK1a (circles) or mSPHK2 (triangles) and the activities of each in cell lysates were measured after 24 hours in the presence of the indicated concentrations of phosphatidylserine (filled symbols) or phosphatidylcholine (open symbols). Data are expressed as percentage of control activity measured without any additions.
(§4) Human embryonic kidney cells (HEK293, ATCC CRL-1573) and NIH 3T3 fibroblasts (ATCC CRL-1658) were cultured as described in Olivera, A., Kohama, T., Edsall, L. C., Nava, V., Cuvillier, O., Poulton, S., and Spiegel, S., J. Cell Biol., 147 (1999) 545-558. HEK293 cells were seeded at 6×10^5 per well in poly-L-lysine coated 6 well plates. After 24 hours, cells were transfected with 1 μg of vector alone or with vectors containing sphingosine kinase constructs and 6 μl of “Lipofectamine PLUS” reagent plus 4 μl of “Lipofectamine” reagent per well. One to three days after transfection, cells were harvested and lysed by freeze-thawing as described in Kohama, T., Olivera, A., Edsall, L., Nagiec, M. M., Dickson, R., and Spiegel, S., J. Biol. Chem., 273, (1998), 23722-23728. In some experiments, cell lysates were fractionated into cytosol and membrane fractions by centrifugation at 100,000×g for 60 minutes. SPHK activity was determined in the presence of sphingosine, prepared as a complex with 4 mg/ml BSA, and [g-32P] ATP in kinase buffer (Olivera, A. and Spiegel, S. in Methods in Molecular Biology, (Bird, I. M. ed.), (1998), Vol. 105, 233-242, Humana Press, Inc., Totowa, N.J.), containing 200 mM KCl, unless indicated otherwise. 32P-SPP was separated by TLC and quantified with a phosphoimager as previously described.

mSPHK1a [1] = biological target: T2, mSPHK1a (Mus musculus, UniProt Q8CI15); assay: SPHK activity assay with recombinant mSPHK1a (lysates of transfected HEK293 cells); format: biochemical; settings: for inhibition of SPHK1 activity: salt concentration 200 mM
T2 construct: made in house; host or cells: HEK293 (ATCC CRL-1573), transient transfection; unpurified cell lysate
Experimental: as §1, §2, §3, §4

mSPHK1a [2] = biological target: T2, mSPHK1a; settings: cited from earlier work; for inhibition of SPHK1: previously shown (Edsall et al. 1998)
HEK293 cells [3] = assay: SPHK activity in HEK293 cells transiently transfected with SPHK expression vectors (cytosol and particulate fractions); format: cell-based, human; settings: 24 hours after transfection of HEK293 cells
Experimental: In FIG. 3A, HEK 293 cells were transiently transfected with an empty vector or with mSPHK2 or hSPHK2 expression vectors. After 24 hours, SPHK activity was measured in cytosol (open bars) and particulate fractions (filled bars). The data are means±S.D. Parental and vector-transfected cells had basal SPHK activities of 26 and 37 pmol/min/mg, respectively.
as §4

HEK293 cells [4] = assay: Mass levels of SPP in HEK293 cells after transfection with SPHK2; format: cell-based, human; settings: HEK 293 cells after transfection
Experimental: Mass levels of SPP in HEK293 cells transfected with an empty vector (open bars) or with mSPHK2 (filled bars) or with hSPHK2 (hatched bars) were measured as described hereinbelow. The data are expressed as pmol/nmol phospholipid.
Cells were washed with PBS and scraped in 1 ml of methanol containing 2.5 μl concentrated HCl. Lipids were extracted by adding 2 ml chloroform/1M NaCl (1:1, v/v) and 100 μl 3N NaOH and phases separated. The basic aqueous phase containing SPP, and devoid of sphingosine, ceramide, and the majority of phospholipids, was transferred to a siliconized glass tube. The organic phase was re-extracted with 1 ml methanol/1M NaCl (1:1, v/v) plus 50 μl 3N NaOH, and the aqueous fractions were combined. Mass measurement on SPP in the aqueous phase and total phospholipids in the organic phase were measured exactly as described in Edsall, L. C., Pirianov, G. G., and Spiegel, S., J. Neurosci., 17, (1997) 6952-6960; Edsall, L. C., and Spiegel, S., Anal. Biochem., 272, (1999) 80-86).

T2 sequence (Q8CI15 1-381 isoform Q8CI15-3): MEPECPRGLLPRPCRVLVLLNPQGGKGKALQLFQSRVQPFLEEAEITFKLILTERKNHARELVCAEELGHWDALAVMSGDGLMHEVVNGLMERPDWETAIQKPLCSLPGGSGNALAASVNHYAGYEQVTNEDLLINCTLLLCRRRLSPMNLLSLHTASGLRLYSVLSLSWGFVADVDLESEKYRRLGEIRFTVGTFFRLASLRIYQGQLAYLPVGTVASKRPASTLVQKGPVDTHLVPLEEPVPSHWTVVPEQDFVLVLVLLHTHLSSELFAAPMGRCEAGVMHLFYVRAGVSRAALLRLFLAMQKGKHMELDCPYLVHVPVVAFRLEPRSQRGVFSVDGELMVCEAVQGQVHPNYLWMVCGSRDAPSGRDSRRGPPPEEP

[Cl-].[Na+] [NaCl]
effect on SPHK2 activity (mSPHK2; in words): dramatically stimulated; also recorded: markedly stimulated
salt concentration with maximal stimulation of SPHK2 activity (mSPHK2): 400 mM
inhibition of SPHK1 activity (mSPHK1a [1]): 50%

CCCCCCCCCCCCCCC[C@H](O)[C@@H](N)CO [D,L-threo-dihydrosphingosine]
SPHK-dependent phosphorylation by SPHK2 (substrate specificity) (mSPHK2): significantly phosphorylated
SPHK-dependent phosphorylation by SPHK2 (substrate specificity) (mSPHK2; listed as D, L-threo-dihydrosphingosine): to a lesser extent
phosphorylation by SPHK1 (mSPHK1a [1]): not phosphorylated at all

Triton X-100
effect on SPHK2 activity (mSPHK2; Triton X-100 0.5%): almost completely inhibited
effect on SPHK2 activity (mSPHK2; detergent below 0.005%): no effect
effect on SPHK2 activity (mSPHK2; in words): inhibited
increase of SPHK1 activity (mSPHK1a [1]; Triton X-100 0.5%): more than 4 fold
effect on SPHK1 activity (mSPHK1a [1]; detergent below 0.005%): no effect
effect on SPHK1 activity (mSPHK1a [1]; in words): markedly increased

CCCCCCCCCCCCCC[C@@H](O)[C@@H](O)[C@@H](N)CO [phytosphingosine]
SPHK-dependent phosphorylation by SPHK2 (substrate specificity) (mSPHK2): significantly phosphorylated; also recorded: to a lesser extent
phosphorylation by SPHK1 (mSPHK1a [1]): not phosphorylated at all

phosphatidylcholine [phosphatidyicholine]
effect on SPHK2 activity (mSPHK2; in words): no effect
effect on SPHK1 activity (mSPHK1a [1]; in words): no effect

CCCCCCCCCCCCC/C=C/[C@@H](O)[C@@H](N)CO [D-erythro-sphingosine]
phosphorylation by SPHK1 (substrate rank) (mSPHK1a [2]; Kohama et al. 1998): best substrate

mSPHK1: first cloned mammalian (murine) sphingosine kinase, type 1
increase of in vitro SPHK activity over basal levels (HEK293 cells [3]): 610 fold

CCCCCCCCCCCCCCC[C@@H](O)[C@@H](N)CO [D-erythro-dihydrosphingosine]
SPHK-dependent phosphorylation by SPHK2 (substrate specificity) (mSPHK2): better substrate for SPHK2 than D-erythro-sphingosine

CCCCCCCCCCCCC/C=C/[C@@H](O)[C@H](CO)NC(C)=O [C2-ceramide]
SPHK-dependent phosphorylation by SPHK2 (substrate specificity) (mSPHK2): not phosphorylated

[Cl-].[K+] [KCl]
Km value of mSPHK2 for sphingosine in the presence of KCl (mSPHK2; 50 or 200 mM KCl): not affected
Vmax of mSPHK2 (mSPHK2; in the presence of 50 mM KCl): 0.3 nmol/min/mg
Vmax of mSPHK2 (mSPHK2; in the presence of 200 mM KCl): 1 nmol/min/mg
effect on SPHK2 activity (mSPHK2; in words): dramatically stimulated; also recorded: markedly stimulated
salt concentration with maximal stimulation of SPHK2 activity (mSPHK2): 400 mM
inhibition of SPHK1 activity (mSPHK1a [1]): 50%

diacylglycerol
SPHK-dependent phosphorylation by SPHK2 (substrate specificity) (mSPHK2): not phosphorylated

CCCCCCCCCCCCCCC[C@@H](O)[C@@H](N)CO [DHS, dihydrosphingosine]
SPHK-dependent phosphorylation by SPHK2 (substrate specificity) (mSPHK2): even better substrate than D-erythro-sphingosine
inhibition of SPHK1 (mSPHK1a [2]): potent competitive inhibitors; also recorded: potent inhibitor

CCCCCCCCCCCCC/C=C/[C@@H](O)[C@H](CO)NC(=O)CCCCCCCCCCCCCCC [C16-ceramide]
SPHK-dependent phosphorylation by SPHK2 (substrate specificity) (mSPHK2): not phosphorylated

phosphatidylserine
effect on SPHK2 activity (mSPHK2; in words): stimulated
maximal increase of SPHK2 activity (mSPHK2; phosphatidylserine 40 μg/ml): 4 fold
effect on SPHK1 activity (mSPHK1a [1]; in words): stimulated
maximal increase of SPHK1 activity (mSPHK1a [1]; phosphatidylserine 40 μg/ml): 4 fold

phosphatidylinositol
SPHK-dependent phosphorylation by SPHK2 (substrate specificity) (mSPHK2): not phosphorylated

N,N-dimethylsphingosine [DMS]
inhibition of SPHK2 (mSPHK2; 10 μM D-erythro-sphingosine, increasing concentrations of DMS (FIG. 4B)): potent inhibitor
manner of inhibition of SPHK2 (mSPHK2; kinetic analysis, FIG. 4C and 4D): non-competitive
SPHK-dependent phosphorylation by SPHK2 (substrate specificity) (mSPHK2): not phosphorylated
Ki (mSPHK2; recombinant mSPHK2, HEK293 cell lysates, varying D-erythro-sphingosine, 10 or 20 μM DMS, Lineweaver-Burk, read-out: Ki for DMS with SPHK2): 12 µM
inhibition of SPHK1 (mSPHK1a [2]): potent competitive inhibitors; also recorded: competitive inhibitor

B1: hSPHK2: human sphingosine kinase type 2, polypeptide of 618 amino acids (SEQ ID NO 14) (protein)
chain: MAPPPPPLAASTPLLHGEFGSYPARGPRFALTLTSQALHIQRLRPKPEARPRGGLVPLAEVSGCCTLRSRSPSDSAAYFCIYTYPRGRRGARRRATRTFRADGAATYEENRAEAQRWATALTCLLRGLPLPGDGEITPDLLPRPPRLLLLVNPFGGRGLAWQWCKNHVLPMISEAGLSFNLIQTERQNHARELVQGLSLSEWDGIVTVSGDGLLHEVLNGLLDRPDWEEAVKMPVGILPCGSGNALAGAVNQHGGFEPALGLDLLLNCSLLLCRGGGHPLDLLSVTLASGSRCFSFLSVAWGFVSDVDIQSERFRALGSARFTLGTVLGLATLHTYRGRLSYLPATVEPASPTPAHSLPRAKSELTLTPDPAPPMAHSPLHRSVSDLPLPLPQPALASPGSPEPLPILSLNGGGPELAGDWGGAGDAPLSPDPLLSSPPGSPKAALHSPVSEGAPVIPPSSGLPLPTPDARVGASTCGPPDHLLPPLGTPLPPDWVTLEGDFVLMLAISPSHLGADLVAAPHARFDDGLVHLCWVRSGISRAALLRLFLAMERGSHFSLGCPQLGYAAARAFRLEPLTPRGVLTVDGEQVEYGPLQAQMHPGIGTLLTGPPGCPGREP
increase of in vitro SPHK activity over basal levels (HEK293 cells [3]): 35 fold
increase in SPP (HEK293 cells [4]): 3.3 fold
